Source: article PMC10251674, “Synthesis of novel mono- and bis-pyrazolylthiazole derivatives as anti-liver cancer agents through EGFR/HER2 target inhibition” (BMC Chemistry, 2023)
Like-named read-outs stand apart in the source and are kept apart here.

Columns and labels:
THLE2 normal liver cells = experiment: MTT cytotoxicity assay against THLE2 cells; type: cell-based; details: for IC50: Homo sapiens, THLE-2, MTT assay, 48 h, n = 3, read-out: IC50 ± SD THLE2
Protocol: (§1) HepG2 liver cancer cells and THLE2 normal liver cells were bought from the National Research Institute in Egypt and cultured in “RPMI-1640” media containing L-Glutamine (Lonza Verviers SPRL, Belgium, cat#12-604F). Fetal bovine serum (Sigma-Aldrich, MO, USA) and penicillin–streptomycin at a concentration of 10% and 1%, respectively, were added to both cell lines (Lonza, Belgium). All cells were incubated following routine tissue culture work. Cells were treated with the compounds at (0.01, 0.1, 1, 10, and 100 µM) concentrations. Cell viability was assessed after 48 h using MTT solution (Promega, USA). Finally, Absorbance was subsequently measured (at 570 nm) using ELISA microplate reader (BIO-RAD, model iMark, Japan). The percentage of cell viability was calculated, and IC50 values were recorded using the GraphPad prism 7, as previously reported in the literature.

HepG2 liver cancer cells = experiment: MTT cytotoxicity assay against HepG2 cells; type: cell-based; details: for IC50 / viability at 100 µM: Homo sapiens; for viability at 100 µM: read-out: cell viability at the highest concentration
Protocol: as §1

EGFR kinase = molecular target: T1, EGFR kinase (Homo sapiens, UniProt P00533); experiment: EGFR kinase inhibitory assay (BPS Bioscience kit); type: biochemical; details: average of three replicates, five concentrations
T1 construct: purchased BPS Bioscience 40321
Protocol: (§2) The autophosphorylation percentage inhibition of compounds was calculated by: 100-[Acontrol/Atreated-Control)] .

HER2 kinase = molecular target: T2, HER2 kinase (Homo sapiens, UniProt P04626); experiment: HER2 kinase inhibitory assay (BPS Bioscience kit); type: biochemical; details: average of three replicates, five concentrations
T2 construct: purchased BPS Bioscience 40721
Protocol: as §2

HepG2 cells [1] = experiment: Annexin V/PI staining, flow cytometry; type: cell-based; details: HepG2, treated at IC50, 48 h
Protocol: Overnight, 6-well culture plates were stocked with HepG2 cells (3–5 × 10^5 cells/well). […] After that, the cells and the medium supernatants were separated and washed with ice-cold PBS. The next step was suspending the cells in 100 µL of annexin binding buffer solution "25 mM CaCl2, 1.4 M NaCl, and 0.1 M Hepes/NaOH, pH 7.4″ and incubation with “Annexin V-FITC solution (1:100) and propidium iodide (PI)” at a concentration equals 10 µg/mL in the dark for 30 min. After the cells were stained, they were gathered by Cytoflex FACS equipment. We used cytExpert to examine the data.

caspase-8 = experiment: RT-PCR gene expression of caspase-8; type: cell-based; details: HepG2, treated at IC50, 48 h, normalised to β-actin, control = 1
Protocol: (§3) Genes of P53, Bax, and Caspases-3,8,9 were screened as proapoptotic genes, while Bcl-2 was screened as antiapoptotic, therefore, we measured their gene expression to investigate the apoptotic process. […] After treatment, RT-PCR reaction was carried out following routine work. The Ct values were then used to determine the fold change in gene expression between samples after normalization to the β-actin reference gene.

HepG2 cells [2] = experiment: Cell cycle analysis by DNA flow cytometry; type: cell-based; details: HepG2, treated at IC50, 48 h
P53 = experiment: RT-PCR gene expression of P53; type: cell-based; details: HepG2, treated at IC50, 48 h, normalised to β-actin, control = 1
Protocol: as §3

caspase-9 = experiment: RT-PCR gene expression of caspase-9; type: cell-based; details: HepG2, treated at IC50, 48 h, normalised to β-actin, control = 1
Protocol: as §3

Bax = experiment: RT-PCR gene expression of Bax; type: cell-based; details: HepG2, treated at IC50, 48 h, normalised to β-actin, control = 1
Protocol: as §3

caspase-3 = experiment: RT-PCR gene expression of caspase-3; type: cell-based; details: HepG2, treated at IC50, 48 h, normalised to β-actin, control = 1
Protocol: as §3

Bcl-2 = experiment: RT-PCR gene expression of Bcl-2; type: cell-based; details: HepG2, treated at IC50, 48 h, normalised to β-actin, control = 1
Protocol: as §3

[3] = HepG2 cells, MTT assay, 48 h, n = 3, read-out: IC50 ± SD HepG2
[4] = HepG2, dose-response curve fit in Fig. 5
[5] = HepG2, dose-response curve fit in Fig. 5, read-out: IC50 (unit inferred)

T2 sequence (P04626 23-1255): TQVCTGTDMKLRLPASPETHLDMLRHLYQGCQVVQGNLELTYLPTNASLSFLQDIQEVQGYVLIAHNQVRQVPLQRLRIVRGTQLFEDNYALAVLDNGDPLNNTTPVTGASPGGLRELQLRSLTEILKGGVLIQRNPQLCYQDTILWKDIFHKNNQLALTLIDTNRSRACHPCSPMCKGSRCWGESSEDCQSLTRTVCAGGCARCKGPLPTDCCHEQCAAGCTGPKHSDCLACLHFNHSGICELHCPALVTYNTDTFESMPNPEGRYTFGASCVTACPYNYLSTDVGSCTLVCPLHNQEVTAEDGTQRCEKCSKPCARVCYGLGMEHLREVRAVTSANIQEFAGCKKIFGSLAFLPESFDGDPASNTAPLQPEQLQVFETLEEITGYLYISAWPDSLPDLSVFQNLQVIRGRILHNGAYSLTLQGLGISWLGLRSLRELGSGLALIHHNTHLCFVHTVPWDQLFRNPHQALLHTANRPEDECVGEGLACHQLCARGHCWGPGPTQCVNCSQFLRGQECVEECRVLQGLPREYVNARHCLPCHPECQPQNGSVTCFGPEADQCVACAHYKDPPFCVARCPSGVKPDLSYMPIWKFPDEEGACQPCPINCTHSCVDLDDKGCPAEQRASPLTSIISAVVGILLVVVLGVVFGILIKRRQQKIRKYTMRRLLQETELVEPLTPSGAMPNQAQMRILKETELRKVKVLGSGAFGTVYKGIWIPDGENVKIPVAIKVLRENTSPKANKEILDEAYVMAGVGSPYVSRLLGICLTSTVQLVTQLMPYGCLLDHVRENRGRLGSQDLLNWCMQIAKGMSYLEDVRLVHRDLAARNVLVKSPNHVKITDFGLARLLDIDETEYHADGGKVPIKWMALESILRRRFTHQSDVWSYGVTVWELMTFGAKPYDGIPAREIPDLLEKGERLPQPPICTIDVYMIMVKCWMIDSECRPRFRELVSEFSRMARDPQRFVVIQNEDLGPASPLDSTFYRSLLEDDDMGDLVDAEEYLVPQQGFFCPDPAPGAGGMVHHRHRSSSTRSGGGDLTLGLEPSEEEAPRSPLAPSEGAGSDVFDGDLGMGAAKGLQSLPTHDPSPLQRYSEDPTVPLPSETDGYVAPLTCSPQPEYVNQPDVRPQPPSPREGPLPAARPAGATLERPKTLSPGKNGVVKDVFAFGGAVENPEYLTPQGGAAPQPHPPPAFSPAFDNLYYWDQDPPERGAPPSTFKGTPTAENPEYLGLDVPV
T1 sequence (P00533 25-1210): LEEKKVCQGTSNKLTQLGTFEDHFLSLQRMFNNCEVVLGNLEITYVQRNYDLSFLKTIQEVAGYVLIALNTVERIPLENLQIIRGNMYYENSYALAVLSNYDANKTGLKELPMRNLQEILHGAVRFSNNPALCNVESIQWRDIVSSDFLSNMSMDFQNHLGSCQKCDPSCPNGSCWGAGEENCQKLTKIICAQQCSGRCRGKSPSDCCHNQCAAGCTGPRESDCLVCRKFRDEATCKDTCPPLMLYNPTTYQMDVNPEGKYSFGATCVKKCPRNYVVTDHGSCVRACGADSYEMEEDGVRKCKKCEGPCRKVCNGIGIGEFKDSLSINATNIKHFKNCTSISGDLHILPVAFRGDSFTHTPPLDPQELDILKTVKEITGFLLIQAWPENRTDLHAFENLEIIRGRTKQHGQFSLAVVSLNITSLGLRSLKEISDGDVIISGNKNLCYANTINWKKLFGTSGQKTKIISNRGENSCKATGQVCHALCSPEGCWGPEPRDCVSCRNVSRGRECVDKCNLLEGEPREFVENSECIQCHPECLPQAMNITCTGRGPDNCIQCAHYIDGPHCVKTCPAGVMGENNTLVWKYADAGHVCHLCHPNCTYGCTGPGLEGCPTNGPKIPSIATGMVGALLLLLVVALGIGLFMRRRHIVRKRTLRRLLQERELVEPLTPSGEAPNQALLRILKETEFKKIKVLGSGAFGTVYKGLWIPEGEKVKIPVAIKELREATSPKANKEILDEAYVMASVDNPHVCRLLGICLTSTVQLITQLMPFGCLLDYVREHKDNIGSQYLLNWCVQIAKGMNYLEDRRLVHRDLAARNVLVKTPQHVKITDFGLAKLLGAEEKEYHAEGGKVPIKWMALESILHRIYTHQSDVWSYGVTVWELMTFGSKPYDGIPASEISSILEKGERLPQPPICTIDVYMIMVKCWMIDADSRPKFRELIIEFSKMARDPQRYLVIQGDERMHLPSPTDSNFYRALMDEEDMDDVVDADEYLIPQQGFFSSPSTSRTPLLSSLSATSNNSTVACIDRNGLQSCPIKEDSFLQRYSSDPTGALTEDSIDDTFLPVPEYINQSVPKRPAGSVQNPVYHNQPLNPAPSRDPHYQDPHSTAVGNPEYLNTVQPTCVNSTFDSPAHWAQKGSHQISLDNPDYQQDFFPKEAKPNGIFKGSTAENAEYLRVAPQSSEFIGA

| SMILES | melting point | IC50 (THLE2 normal liver cells) | IC50 (HepG2 liver cancer cells; [3]) | other results |
| --- | --- | --- | --- | --- |
| O=C(c1ccc2ccccc2c1)c1cn(-c2ccccc2)nc1C(=O)CBr [Compound 6, 3-Bromoacetyl-4-(2-naphthoyl)-1-phenyl-1H-pyrazole] |  | 34.5 ± 1.26 µM | 16.3 ± 0.29 µM |  |
| O=C(c1ccc2ccccc2c1)c1cn(-c2ccccc2)nc1-c1csc(NN=Cc2ccccc2)n1 [Compound 8a, 2-(Benzylidenehydrazinyl)-4-(4-(2-naphthoyl)-1-phenyl-pyrazol-3-yl)thiazole] | 138 to 140 °C | 46.2 ± 2.01 µM | 8.64 ± 0.29 µM |  |
| Cc1ccc(C=NNc2nc(-c3nn(-c4ccccc4)cc3C(=O)c3ccc4ccccc4c3)cs2)cc1 [Compound 8b, 2-(4-Methylbenzylidenehydrazinyl)-4-(4-(2-naphthoyl)-1-phenylpyrazol-3-yl)thiazole] |  | 41.6 ± 1.86 µM | 8.16 ± 0.34 µM |  |
| COc1ccc(C=NNc2nc(-c3nn(-c4ccccc4)cc3C(=O)c3ccc4ccccc4c3)cs2)cc1 [Compound 8c, 2-(4-Methoxybenzylidenehydrazinyl)-4-(4-(2-naphthoyl)-1-phenyl-pyrazol-3-yl)thiazole] |  | ≥ 50 µM | 7.39 ± 0.29 µM |  |
| O=C(c1ccc2ccccc2c1)c1cn(-c2ccccc2)nc1-c1csc(NN=Cc2ccc([N+](=O)[O-])cc2)n1 [Compound 8d, 2-(4-Nitrobenzylidenehydrazinyl)-4-(4-(2-naphthoyl)-1-phenyl-pyrazol-3-yl)thiazole] | 231 to 233 °C | ≥ 50 µM | 11.3 ± 0.34 µM |  |
| CC(=NNc1nc(-c2nn(-c3ccccc3)cc2C(=O)c2ccc3ccccc3c2)cs1)c1cc2ccccc2o1 [Compound 12, 2-(2-(1-(Benzofuran-2-yl)ethylidene)hydrazinyl)-4-(4-(2-naphthoyl)-1-phenylpyrazol-3-yl)thiazole] | 164 to 166 °C | ≥ 50 µM | 5.48 ± 0.66 µM |  |
| CC(=NNc1nc(-c2nn(-c3ccccc3)cc2C(=O)c2ccc3ccccc3c2)cs1)c1nc2ccccc2s1 [Compound 13, 2-(2-(1-(Benzothiazol-2-yl)ethylidene)hydrazinyl)-4-(4-(2-naphthoyl)-1-phenylpyrazol-3-yl)-thiazole] | 143 to 145 °C | ≥ 50 µM | 5.16 ± 0.29 µM |  |
| CC(=NNc1nc(-c2nn(-c3ccccc3)cc2C(=O)c2ccc3ccccc3c2)cs1)c1cc2ccccc2oc1=O [Compound 14, 2-(2-(1-(Coumarin-3-yl)ethylidene)hydrazinyl)-4-(4-(2-naphthoyl)-1-phenylpyrazol-3-yl)-thiazole] | 239 to 241 °C | 39.5 ± 1.74 µM | 4.36 ± 0.38 µM |  |
| O=C(c1ccc2ccccc2c1)c1cn(-c2ccccc2)nc1-c1csc(N/N=C/c2ccc(OCCCCOc3ccc(/C=N/Nc4nc(-c5nn(-c6ccccc6)cc5C(=O)c5ccc6ccccc6c5)cs4)cc3)cc2)n1 [Compound 18c, 1,4-Bis(4-((2-(4-((2-naphthoyl)-1-phenyl-1H-pyrazol-3-yl)thiazol-2-yl)hydrazono)methyl)-phenoxy)butane] |  | ≥ 50 µM | 0.97 ± 0.09 µM | increase of death rate (apoptotic cell death) (HepG2 cells [1]; vs. untreated control): 63.6 fold; late apoptosis (HepG2 cells [1]; AV+/PI+): 26.07%; early apoptosis (HepG2 cells [1]; AV+/PI-): 15.28%; total apoptosis (HepG2 cells [1]; untreated control 0.65%): 41.35%; caspase-8 gene expression fold change (caspase-8): 2.3 fold; cell cycle phase at which proliferation is arrested (HepG2 cells [2]): S-phase; cell population at S-phase (HepG2 cells [2]; control 37.8%): 50.5%; P53 gene expression fold change (P53): 8.6 fold; caspase-9 gene expression fold change (caspase-9): 7.6 fold; cytotoxicity against THLE2 cells (in words) (THLE2 normal liver cells): safe (non-cytotoxic); LogIC50 (HepG2 liver cancer cells; [4]): -0.01146; enhancement in anti-cancer potency on doubling the pharmacophoric scaffold (HepG2 liver cancer cells; HepG2 IC50 of 18c vs. 8c): about eightfold; IC50 (HepG2 liver cancer cells; [5]): 0.974 µM; viability at 100 µM (HepG2 liver cancer cells; HepG2 cells): 5%; IC50 (EGFR kinase): 0.00498 µM; Bax gene expression fold change (Bax): 8.9 fold; caspase-3 gene expression fold change (caspase-3): 9 fold; Bcl-2 gene expression fold change (Bcl-2): 0.34 fold; IC50 (HER2 kinase): 0.00985 µM |
| CS(=O)(=O)CCNCc1ccc(-c2ccc3ncnc(Nc4ccc(OCc5cccc(F)c5)c(Cl)c4)c3c2)o1 [Lapatinib, reference compound] |  | ≥ 50 µM | 7.45 ± 0.32 µM |  |

The next lines start with results.

| melting point | SMILES | IC50 (THLE2 normal liver cells) | IC50 (HepG2 liver cancer cells; [3]) | other results |
| --- | --- | --- | --- | --- |
| 187 to 189 °C | O=C(c1ccc2ccccc2c1)c1cn(-c2ccccc2)nc1-c1csc(N/N=C/c2ccc(OCCOc3ccc(/C=N/Nc4nc(-c5nn(-c6ccccc6)cc5C(=O)c5ccc6ccccc6c5)cs4)cc3)cc2)n1 [Compound 18a, 1,2-Bis(4-((2-(4-((2-naphthoyl)-1-phenyl-1H-pyrazol-3-yl)thiazol-2-yl)hydrazono)methyl)-phenoxy)ethane] | 39.8 ± 1.59 µM | 8.34 ± 0.48 µM |  |
| 200 to 202 °C | O=C(c1ccc2ccccc2c1)c1cn(-c2ccccc2)nc1-c1csc(N/N=C/c2ccc(OCCCOc3ccc(/C=N/Nc4nc(-c5nn(-c6ccccc6)cc5C(=O)c5ccc6ccccc6c5)cs4)cc3)cc2)n1 [Compound 18b, 1,3-Bis(4-((2-(4-((2-naphthoyl)-1-phenyl-1H-pyrazol-3-yl)thiazol-2-yl)hydrazono)methyl)-phenoxy)propane] | ≥ 50 µM | 3.57 ± 0.67 µM | cytotoxicity against THLE2 cells (in words) (THLE2 normal liver cells): safe (non-cytotoxic); LogIC50 (HepG2 liver cancer cells; [4]): 0.5536; IC50 (HepG2 liver cancer cells; [5]): 3.58 µM; viability at 100 µM (HepG2 liver cancer cells; HepG2 cells): 9%; IC50 (EGFR kinase): 0.00704 µM; IC50 (HER2 kinase): 0.0163 µM |
| 166 to 168 °C | O=C(c1ccc2ccccc2c1)c1cn(-c2ccccc2)nc1-c1csc(N/N=C\c2ccccc2OCCOc2ccccc2/C=N\Nc2nc(-c3nn(-c4ccccc4)cc3C(=O)c3ccc4ccccc4c3)cs2)n1 [Compound 21a, 1,2-Bis(2-((2-(4-((2-naphthoyl)-1-phenyl-1H-pyrazol-3-yl)thiazol-2-yl)hydrazono)methyl)-phenoxy)ethane] | ≥ 50 µM | 3.26 ± 0.14 µM | cytotoxicity against THLE2 cells (in words) (THLE2 normal liver cells): safe (non-cytotoxic); LogIC50 (HepG2 liver cancer cells; [4]): 0.514; IC50 (HepG2 liver cancer cells; [5]): 3.27 µM; viability at 100 µM (HepG2 liver cancer cells; HepG2 cells): 13%; IC50 (EGFR kinase): 0.0058 µM; IC50 (HER2 kinase): 0.0142 µM |
| 209 to 211 °C | O=C(c1ccc2ccccc2c1)c1cn(-c2ccccc2)nc1-c1csc(N/N=C\c2ccccc2OCCCOc2ccccc2/C=N\Nc2nc(-c3nn(-c4ccccc4)cc3C(=O)c3ccc4ccccc4c3)cs2)n1 [Compound 21b, 1,3-Bis(2-((2-(4-((2-naphthoyl)-1-phenyl-1H-pyrazol-3-yl)thiazol-2-yl)hydrazono)methyl)-phenoxy)propane] | 49.4 ± 2.1 µM | 9.36 ± 0.47 µM |  |
| 230 to 232 °C | O=C(c1ccc2ccccc2c1)c1cn(-c2ccccc2)nc1-c1csc(N/N=C\c2ccccc2OCCCCOc2ccccc2/C=N\Nc2nc(-c3nn(-c4ccccc4)cc3C(=O)c3ccc4ccccc4c3)cs2)n1 [Compound 21c, 1,4-Bis(2-((2-(4-((2-naphthoyl)-1-phenyl-1H-pyrazol-3-yl)thiazol-2-yl)hydrazono)methyl)-phenoxy)butane] | 45.6 ± 1.87 µM | 4.12 ± 0.19 µM |  |
